These results are taken from US10946051B2, “Strain of Bifidobacterium animalis subsp. lactis CECT 8145 and use thereof for the treatment and/or prevention of excess weight and obesity and associated diseases” (priority 2013, dated 2021).

In the test the test system is strain BIF-1. As to the kind of experiment: Antibiotic resistance profile (minimum inhibitory concentration). The format is cell-based, Bifidobacterium animalis subsp. lactis. As to the method: Specifically, the production of unwanted metabolites was evaluated: lactic acid isomer production (Table 9), bile-salt deconjugation (Table 10) and biogenic amine production (Table 11), and the antibiotic resistance profile (Table 12).

[1] abbreviates: Bifidobacterium animalis, BIF1; read-out: CMI (minimum inhibitory concentration of antibiotics).

≈ marks a conversion by molar mass, not a printed value. Read-outs that look alike come from different tables or passages of the source.

With `[H]/N=C(/N)N[C@H]1[C@H](O)[C@@H](O)[C@H](O[C@@H]2O[C@@H](C)[C@](O)(C=O)[C@H]2O[C@@H]2O[C@@H](CO)[C@H](O)[C@@H](O)[C@@H]2NC)[C@@H](N/C(N)=N\[H])[C@@H]1O` [Streptomycin], under setting [1], the MIC stood at 128 µg/mL (≈ 220 µM).
Still for that read-out and setting: for `O=C(N[C@H](CO)[C@H](O)c1ccc([N+](=O)[O-])cc1)C(Cl)Cl` [Chloramphenicol] the value was 4 µg/mL (≈ 12.4 µM).
Same read-out and setting: the result for `CC1(C)S[C@@H]2[C@H](NC(=O)[C@H](N)c3ccccc3)C(=O)N2[C@H]1C(=O)O` [Ampicillin] reads 2 µg/mL (≈ 5.72 µM).
As to `CN[C@H](CC(C)C)C(=O)N[C@H]1C(=O)N[C@@H](CC(N)=O)C(=O)N[C@H]2C(=O)N[C@H]3C(=O)N[C@H](C(=O)N[C@H](C(=O)O)c4cc(O)cc(O)c4-c4cc3ccc4O)[C@H](O)c3ccc(c(Cl)c3)Oc3cc2cc(c3O[C@@H]2O[C@H](CO)[C@@H](O)[C@H](O)[C@H]2O[C@H]2C[C@](C)(N)[C@H](O)[C@H](C)O2)Oc2ccc(cc2Cl)[C@H]1O` [Vancomycin], for the setting “Bifidobacterium animalis, BIF1, read-out: CMI (minimum inhibitory concentration of antibiotics)”, the MIC came out at 1 µg/mL (≈ 0.69 µM).
As for Gentamicin, the “CMI (minimum inhibitory concentration of antibiotics)” value (obtained for strain BIF-1) was 64 µg/mL.
In the case of `CN(C)[C@@H]1C(O)=C(C(N)=O)C(=O)[C@@]2(O)C(O)=C3C(=O)c4c(O)cccc4[C@@](C)(O)[C@H]3C[C@@H]12` [Tetracycline], the MIC under setting [1] turned out to be 8 µg/mL (≈ 18 µM).
On the same count and under the same terms, for `NC[C@H]1O[C@H](O[C@H]2[C@H](O)[C@@H](O[C@H]3O[C@H](CO)[C@@H](O)[C@H](N)[C@H]3O)[C@H](N)C[C@@H]2N)[C@H](O)[C@@H](O)[C@@H]1O` [Kanamycin] the value was 128 µg/mL (≈ 264 µM).
Same read-out and setting: the result for `CC[C@H]1OC(=O)[C@H](C)[C@@H](O[C@H]2C[C@@](C)(OC)[C@@H](O)[C@H](C)O2)[C@H](C)[C@@H](O[C@@H]2O[C@H](C)C[C@H](N(C)C)[C@H]2O)[C@](C)(O)C[C@@H](C)C(=O)[C@H](C)[C@@H](O)[C@]1(C)O` [Erythromycin] reads 0.5 µg/mL (≈ 0.681 µM).
